Data: patent US20240158446A1, “CYCLIC COMPOUND HAVING SELECTIVE INHIBITORY ACTION ON KRAS OVER HRAS AND NRAS” (CHUGAI SEIYAKU KABUSHIKI KAISHA, priority 2021, published 2024)
Like-named read-outs stand apart in the source and are kept apart here. Where a SMILES comes first, the peptide text is derived from it. Bridges are numbered along the chain shown (N, C = ends). [ ]: non-standard residue; d: D form. The star is where a group is joined. hPhe(3,5-F2-4-CF3) = N[C@@H](CCc1cc(F)c(C(F)(F)F)c(F)c1)C(=O)O; hPhe(3-Cl-4-CF3) = N[C@@H](CCc1ccc(C(F)(F)F)c(Cl)c1)C(=O)O; NPrPhe(4-CF3) = CCCN[C@@H](Cc1ccc(C(F)(F)F)cc1)C(=O)O; NEtPhe(4-CF3) = CCN[C@@H](Cc1ccc(C(F)(F)F)cc1)C(=O)O; NMeGly(cPent) = CN[C@H](C(=O)O)C1CCCC1; Hyp = O=C(O)[C@@H]1C[C@@H](O)CN1; NMeD = CN[C@@H](CC(=O)O)C(=O)O; NMeL = CN[C@@H](CC(C)C)C(=O)O; αMeL = CC(C)C[C@](C)(N)C(=O)O; αMeV = CC(C)[C@](C)(N)C(=O)O; αMeS = C[C@](N)(CO)C(=O)O; Morpholide = C1CN(*)CCO1; Ac5c = NC1(C(=O)O)CCCC1; Aze = O=C(O)[C@@H]1CCN1; Ac4c = NC1(C(=O)O)CCC1; Aib = CC(C)(N)C(=O)O; Sar = CNCC(=O)O; Allyl = C=CC*

Legend:
[1] = system: human lung cancer strain NCI-H441;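 also: cell proliferation inhibition after four days measured by CellTiter-Glo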
[2] = biological target: GDP-bound HRAS wild-type protein (Homo sapiens, UniProt P01112); experiment: Binding to HRAS by surface plasmon resonance (SPR), Single Cycle Kinetics; conditions: for HRAS/KRAS (ratio of KD value with respect to HRAS to KD value with respect to KRAS) / HRAS/KRAS (ratio of KD value for HRAS to KD value for KRAS): GDP-bound HRAS wild-type protein vs GDP-bound KRAS wild-type protein
GDP-bound HRAS wild-type protein, sequence (P01112 whole entry): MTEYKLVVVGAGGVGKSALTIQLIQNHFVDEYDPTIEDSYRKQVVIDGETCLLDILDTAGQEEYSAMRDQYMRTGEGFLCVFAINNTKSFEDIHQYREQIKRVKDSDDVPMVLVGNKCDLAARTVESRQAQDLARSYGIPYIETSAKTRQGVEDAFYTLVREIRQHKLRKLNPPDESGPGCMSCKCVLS

[3] = biological target: GDP-bound NRAS wild-type protein (Homo sapiens, UniProt P01111); experiment: Binding to NRAS by surface plasmon resonance (SPR), Single Cycle Kinetics; conditions: for NRAS/KRAS (ratio of KD value with respect to NRAS to KD value with respect to KRAS) / NRAS/KRAS (ratio of KD value for NRAS to KD value for KRAS): GDP-bound NRAS wild-type protein vs GDP-bound KRAS wild-type protein
GDP-bound NRAS wild-type protein, sequence (P01111 whole entry): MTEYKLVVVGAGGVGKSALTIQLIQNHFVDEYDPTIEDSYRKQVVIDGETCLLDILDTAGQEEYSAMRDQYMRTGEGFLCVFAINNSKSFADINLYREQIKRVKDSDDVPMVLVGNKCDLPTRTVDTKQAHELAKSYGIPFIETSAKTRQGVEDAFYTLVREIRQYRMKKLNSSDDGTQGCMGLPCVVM

Compound | IC50 [1] [nM] | HRAS/KRAS (ratio of KD value with respect to HRAS to KD value with respect to KRAS) ([2]; SPR) | NRAS/KRAS (ratio of KD value with respect to NRAS to KD value with respect to KRAS) ([3]; SPR) | HRAS/KRAS (ratio of KD value for HRAS to KD value for KRAS) ([2]; SPR) | NRAS/KRAS (ratio of KD value for NRAS to KD value for KRAS) ([3]; SPR) | other results
CCCN1C(=O)CN(C)C(=O)[C@@H]2CCN2C(=O)[C@H]([C@@H](C)CC)NC(=O)[C@H](CC(C)C)N(C)C(=O)C[C@@H](C(=O)N2CCOCC2)NC(=O)[C@H](C2CCCC2)N(C)C(=O)C2(CCCC2)NC(=O)[C@@H]2C[C@@H](OCC)CN2C(=O)[C@H](CCc2ccc(C(F)(F)F)c(Cl)c2)NC(=O)CN(C)C(=O)[C@@H]1Cc1ccc(C(F)(F)F)cc1 [PP0341] ([NMeL]I[Aze][Sar][NPrPhe(4-CF3)][Sar][hPhe(3-Cl-4-CF3)][Hyp](Et)[Ac5c][NMeGly(cPent)]D-Morpholide; lactam N-11) | 135 |  |  | B (a compound having 3 or more and less than 10 is denoted as B) | B (a compound having 3 or more and less than 10 is denoted as B) | 
CC[C@H](C)[C@@H]1NC(=O)[C@@H](CC(C)C)N(C)C(=O)C[C@@H](C(=O)N(C)C)N(C)C(=O)[C@H](C2CCCC2)N(C)C(=O)C2(CCCC2)NC(=O)[C@@H]2CCCN2C(=O)[C@@H](CCc2ccc(C(F)(F)F)c(Cl)c2)NC(=O)CN(C)C(=O)[C@@H](Cc2ccc(C(F)(F)F)cc2)N2C/C=C\COC[C@@H](C2=O)N(C)C(=O)CN(C)C1=O [PP0626] | 158 | C (A compound having a KD ratio of 0.1 or more and less than 3 is denoted as C) | C (A compound having a KD ratio of 0.1 or more and less than 3 is denoted as C) |  |  | 
CC[C@H](C)[C@@H]1NC(=O)[C@H](CC(C)C)N(C)C(=O)C[C@@H](C(=O)N2CCOCC2)N(C)C(=O)[C@H](C2CCCC2)N(C)C(=O)C2(CCCC2)NC(=O)[C@@H]2CCCN2C(=O)[C@H](CCc2ccc(C(F)(F)F)c(Cl)c2)NC(=O)CN(C)C(=O)[C@H](Cc2ccc(OC)cc2)N2C/C=C\CC[C@@H](C2=O)N(C)C(=O)CN(C)C1=O [PP0609] | 468 | B (a compound having 3 or more and less than 10 is denoted as B) | B (a compound having 3 or more and less than 10 is denoted as B) |  |  | 
CCCN1C(=O)CN(C)C(=O)[C@@H]2CCN2C(=O)[C@H]([C@@H](C)CC)NC(=O)[C@H](CC(C)C)N(C)C(=O)C[C@@H](C(=O)N(C)C)NC(=O)[C@H](C2CCCC2)N(C)C(=O)C2(CCC2)NC(=O)[C@@H]2C[C@@H](OCC)CN2C(=O)[C@H](CCc2ccc(C(F)(F)F)c(Cl)c2)NC(=O)CN(C)C(=O)[C@@H]1Cc1ccc(C(F)(F)F)cc1 [PP0378] ([NMeL]I[Aze][Sar][NPrPhe(4-CF3)][Sar][hPhe(3-Cl-4-CF3)][Hyp](Et)[Ac4c][NMeGly(cPent)]D-NMe2; lactam N-11) | 110 |  |  | B (a compound having 3 or more and less than 10 is denoted as B) | B (a compound having 3 or more and less than 10 is denoted as B) | 
CCO[C@@H]1C[C@H]2C(=O)NC3(CC(C)(C)C3)C(=O)N(C)[C@@H](C3CCCC3)C(=O)N(C)[C@H](C(=O)N(C)C)CC(=O)N(C)[C@@H](CC(C)C)C(=O)N[C@@H]([C@@H](C)CC)C(=O)N(C)CC(=O)N(C)[C@H]3C/C=C\CCN(C3=O)[C@@H](Cc3ccc(C)c(F)c3)C(=O)N(C)CC(=O)N[C@@H](CCc3ccc(C(F)(F)F)c(OC)c3)C(=O)N2C1 [PP2689] |  |  |  |  |  | IC50 ([1]; read-out: NCI-H441 IC50, NCI-H441 cells, four days, CellTiter-Glo): 6.2 nM; HRAS/KRAS (ratio of KD value with respect to GDP-bound HRAS wild-type protein to KD value with respect to KRAS) ([2]; SPR KD ratio HRAS/KRAS, class symbols): B (a compound having 3 or more and less than 10 is denoted as B); NRAS/KRAS (ratio of KD value with respect to GDP-bound NRAS wild-type protein to KD value with respect to KRAS) ([3]; SPR KD ratio NRAS/KRAS, class symbols): A (a compound having 10 or more and less than 20 is denoted as A)
CC[C@H](C)[C@@H]1NC(=O)[C@@H]2CCCc3ccc(cc3)C[C@@H](C(=O)N(C)CC(=O)N[C@@H](CCc3ccc(C(F)(F)F)c(OC)c3)C(=O)N3C[C@H](OC(C)C)C[C@H]3C(=O)NC3(CC(C)(C)C3)C(=O)N(C)[C@@H](C3CCCC3)C(=O)N(C)[C@H](C(=O)N(C)CC)CC(=O)N2C)N2CC/C=C\C[C@@H](C2=O)N(C)C(=O)CN(C)C1=O [PP3084] |  |  |  | B (a compound having 3 or more and less than 10 is denoted as B) | A (a compound having 10 or more and less than 20 is denoted as A) | IC50 ([1]; read-out: NCI-H441 cell proliferation inhibitory activity, 50% proliferation inhibitory concentration (IC50 value), NCI-H441, four days, CellTiter-Glo): 3.7 nM; ratio of the KD value with respect to GDP-bound HRAS wild-type protein to the KD value with respect to KRAS ([2]; SPR, KD(HRAS)/KD(KRAS)): B (a compound having 3 or more and less than 10 is denoted as B); ratio of the KD value with respect to GDP-bound NRAS wild-type protein to the KD value with respect to KRAS ([3]; SPR, KD(NRAS)/KD(KRAS)): A (a compound having 10 or more and less than 20 is denoted as A)

More lines, main results first:

IC50 [1] [nM] | Compound | HRAS/KRAS (ratio of KD value with respect to HRAS to KD value with respect to KRAS) ([2]; SPR) | NRAS/KRAS (ratio of KD value with respect to NRAS to KD value with respect to KRAS) ([3]; SPR) | HRAS/KRAS (ratio of KD value for HRAS to KD value for KRAS) ([2]; SPR) | NRAS/KRAS (ratio of KD value for NRAS to KD value for KRAS) ([3]; SPR) | other results
170 | CCCN1C(=O)CN(C)C(=O)[C@@H]2CCN2C(=O)[C@H]([C@@H](C)CC)NC(=O)[C@H](CC(C)C)N(C)C(=O)C[C@@H](C(=O)N2CCOCC2)N(C)C(=O)[C@H](C2CCCC2)N(C)C(=O)[C@](C)(C(C)C)NC(=O)[C@@H]2CCCN2C(=O)[C@H](CCc2cc(F)c(C(F)(F)F)c(F)c2)NC(=O)CN(C)C(=O)[C@@H]1Cc1ccc(C(F)(F)F)cc1 [PP0773] ([NMeL]I[Aze][Sar][NPrPhe(4-CF3)][Sar][hPhe(3,5-F2-4-CF3)]P[αMeV][NMeGly(cPent)][NMeD]-Morpholide; lactam N-11) | B (a compound having 3 or more and less than 10 is denoted as B) | B (a compound having 3 or more and less than 10 is denoted as B) |  |  | 
591 | CCCN1C(=O)CN(C)C(=O)[C@@H]2CCN2C(=O)[C@H]([C@@H](C)CC)NC(=O)[C@H](CC(C)C)N(C)C(=O)C[C@@H](C(=O)N2CCOCC2)N(C)C(=O)[C@H](C2CCCC2)N(C)C(=O)[C@](C)(CC(C)C)NC(=O)[C@@H]2CCCN2C(=O)[C@H](CCc2cc(F)c(C(F)(F)F)c(F)c2)NC(=O)CN(C)C(=O)[C@@H]1Cc1ccc(C(F)(F)F)cc1 [PP0776] ([NMeL]I[Aze][Sar][NPrPhe(4-CF3)][Sar][hPhe(3,5-F2-4-CF3)]P[αMeL][NMeGly(cPent)][NMeD]-Morpholide; lactam N-11) | B (a compound having 3 or more and less than 10 is denoted as B) | B (a compound having 3 or more and less than 10 is denoted as B) |  |  | 
296 | CCCN1C(=O)CN(C)C(=O)[C@@H]2CCN2C(=O)[C@H]([C@@H](C)CC)NC(=O)[C@H](CC(C)C)N(C)C(=O)C[C@@H](C(=O)N2CCOCC2)NC(=O)[C@H](C2CCCC2)N(C)C(=O)C2(CCC2)NC(=O)[C@@H]2CCCN2C(=O)[C@H](CCc2ccc(C(F)(F)F)c(Cl)c2)NC(=O)CN(C)C(=O)[C@@H]1Cc1ccc(C(F)(F)F)cc1 [PP0338] ([NMeL]I[Aze][Sar][NPrPhe(4-CF3)][Sar][hPhe(3-Cl-4-CF3)]P[Ac4c][NMeGly(cPent)]D-Morpholide; lactam N-11) |  |  | B (a compound having 3 or more and less than 10 is denoted as B) | B (a compound having 3 or more and less than 10 is denoted as B) | 
4.5 | CC[C@H](C)[C@@H]1NC(=O)[C@H](CC(C)C)N(C)C(=O)C[C@@H](C(=O)N2CCOCC2)N(C)C(=O)[C@H](C2CCCC2)N(C)C(=O)C(C)(C)NC(=O)[C@@H]2CCCN2C(=O)[C@H](CCc2ccc(C(F)(F)F)c(Cl)c2)NC(=O)CN(C)C(=O)[C@H](Cc2ccc(C(F)(F)F)cc2)N(CC)C(=O)CN(C)C(=O)CN(C)C1=O [PP0235] ([NMeL]I[Sar][Sar][NEtPhe(4-CF3)][Sar][hPhe(3-Cl-4-CF3)]P[Aib][NMeGly(cPent)][NMeD]-Morpholide; lactam N-11) |  |  | C (A compound having a KD ratio of 0.1 or more and less than 3 is denoted as C) | B (a compound having 3 or more and less than 10 is denoted as B) | 
6.9 | CC[C@H](C)[C@@H]1NC(=O)[C@H](CC(C)C)N(C)C(=O)C[C@@H](C(=O)N2CCOCC2)N(C)C(=O)[C@H](C2CCCC2)N(C)C(=O)C2(CCCC2)NC(=O)[C@@H]2CCCN2C(=O)[C@H](CCc2ccc(C(F)(F)F)c(Cl)c2)NC(=O)CN(C)C(=O)[C@H](Cc2ccc(Cl)cc2)N2CCCC[C@@H](C2=O)N(C)C(=O)CN(C)C1=O [PP0532] | B (a compound having 3 or more and less than 10 is denoted as B) | C (A compound having a KD ratio of 0.1 or more and less than 3 is denoted as C) |  |  | 
527 | C=CCOC[C@]1(C)NC(=O)[C@@H]2CCCN2C(=O)[C@H](CCc2cc(F)c(C(F)(F)F)c(F)c2)NC(=O)CN(C)C(=O)[C@H](Cc2ccc(C(F)(F)F)cc2)N(CCC)C(=O)CN(C)C(=O)[C@@H]2CCN2C(=O)[C@H]([C@@H](C)CC)NC(=O)[C@H](CC(C)C)N(C)C(=O)C[C@@H](C(=O)N2CCOCC2)N(C)C(=O)[C@H](C2CCCC2)N(C)C1=O [PP0780] ([NMeL]I[Aze][Sar][NPrPhe(4-CF3)][Sar][hPhe(3,5-F2-4-CF3)]P[αMeS](Allyl)[NMeGly(cPent)][NMeD]-Morpholide; lactam N-11) | B (a compound having 3 or more and less than 10 is denoted as B) | B (a compound having 3 or more and less than 10 is denoted as B) |  |  | 
12.4 | CCCN1C(=O)CN(C)C(=O)[C@@H]2CCN2C(=O)[C@H]([C@@H](C)CC)NC(=O)[C@H](CC(C)C)N(C)C(=O)C[C@@H](C(=O)N(C)C)N(C)C(=O)[C@H](C2CCCC2)N(C)C(=O)C2(CCCC2)NC(=O)[C@@H]2CCCN2C(=O)[C@H](CCc2ccc(C(F)(F)F)c(Cl)c2)NC(=O)CN(C)C(=O)[C@@H]1Cc1ccc(C(F)(F)F)cc1 [PP0429] ([NMeL]I[Aze][Sar][NPrPhe(4-CF3)][Sar][hPhe(3-Cl-4-CF3)]P[Ac5c][NMeGly(cPent)][NMeD]-NMe2; lactam N-11) | C (A compound having a KD ratio of 0.1 or more and less than 3 is denoted as C) | B (a compound having 3 or more and less than 10 is denoted as B) |  |  | 
